This note sets out measurements from PMC3504309 (ChemMedChem, 2011).

This assay relates to human K562 cells. As to the kind of experiment: Human K562 growth inhibition assay. It is filed as cell-based. Conditions: for Antiproliferative effect on growth of human K562 cells (in words): 333 μM was the highest concentration tested; for IC50: Homo sapiens, K562, 48 h, read-out: Growth inhibition of human K562 cells IC50.

SMILES strings stand for the structures.

One may read the IC50 as the concentration needed to halve the response being measured. For `CO[C@@H](C(=O)NCC1CCCN(C(=O)C(C)C)C1)[C@H](O)[C@@H](O)[C@H](O)/C=C/C(C)(C)C` (stereo partly drawn) [Compound 4, (2R,3R,4S,5R,E)-3,4,5-trihydroxy-N-((1-isobutyrylpiperidin-3-yl)methyl)-2-methoxy-8,8-dimethylnon-6-enamide], the “Antiproliferative effect on growth of human K562 cells (in words)” value (from here on “Antiproliferative effect on growth”) is listed as “no or weak activity” and the IC50 is more than 333 µM.
For `CO[C@@H](C(=O)NCC1CCCN(C(=O)C2CC2)C1)[C@H](O)[C@@H](O)[C@H](O)/C=C/C(C)(C)C` (stereo partly drawn) [Compound 5, (2R,3R,4S,5R,E)-N-((1-(cyclopropanecarbonyl)piperidin-3-yl)methyl)-3,4,5-trihydroxy-2-methoxy-8,8-dimethylnon-6-enamide], the “Antiproliferative effect on growth” value is “no or weak activity” and the IC50 was more than 333 µM.
Turning to `CO[C@@H](C(=O)NCCC(c1ccccc1)c1ccco1)[C@H](O)[C@@H](O)[C@H](O)/C=C/C(C)(C)C` (stereo partly drawn) [Compound 6, (2R,3R,4S,5R,E)-N-(3-(furan-2-yl)-3-phenylpropyl)-3,4,5-trihydroxy-2-methoxy-8,8-dimethylnon-6-enamide], the “Antiproliferative effect on growth” value was “low and reproducible activity”; the IC50 turned out to be 79.6 µM.
On to `CO[C@@H](C(=O)NCCC(c1ccc(F)cc1)c1ccco1)[C@H](O)[C@@H](O)[C@H](O)/C=C/C(C)(C)C` (stereo partly drawn) [Compound 7, (2R,3R,4S,5R,E)-N-(3-(4-fluorophenyl)-3-(furan-2-yl)propyl)-3,4,5-trihydroxy-2-methoxy-8,8-dimethylnon-6-enamide], for which the “Antiproliferative effect on growth” value is “low and reproducible activity”; the half-maximal inhibitory concentration (IC50) turned out to be 96.5 µM.
Take `CO[C@@H](C(=O)NC1Cc2ccccc2C1)[C@H](O)[C@@H](O)[C@H](O)/C=C/C(C)(C)C` [Compound 8, (2R,3R,4S,5R,E)-N-(2,3-dihydro-1H-inden-2-yl)-3,4,5-trihydroxy-2-methoxy-8,8-dimethylnon-6-enamide]: the “Antiproliferative effect on growth” value is on record as “no or weak activity” and the 50% inhibitory concentration (IC50) is more than 333 µM.
The corresponding values for `CO[C@@H](C(=O)NCC(N)=O)[C@H](O)[C@@H](O)[C@H](O)/C=C/C(C)(C)C` [Compound 9, (2R,3R,4S,5R,E)-N-(2-amino-2-oxoethyl)-3,4,5-trihydroxy-2-methoxy-8,8-dimethylnon-6-enamide] are “no or weak activity” and more than 333 µM.
`CO[C@@H](C(=O)NCCOc1c(C)cc(C)cc1C)[C@H](O)[C@@H](O)[C@H](O)/C=C/C(C)(C)C` [Compound 10, (2R,3R,4S,5R,E)-3,4,5-trihydroxy-N-(2-(mesityloxy)ethyl)-2-methoxy-8,8-dimethylnon-6-enamide]: the “Antiproliferative effect on growth” value is “low and reproducible activity”; the IC50 is 37.8 µM.
